According to patent US20190256559A1, “PEPTIDOMIMETIC MACROCYCLES AND USES THEREOF” (AILERON THERAPEUTICS, INC., priority 2015, published 2019):
Entries after “also recorded” stand apart in the source; their conditions may differ. Where a SMILES comes first, the peptide text is derived from it. Bridges are numbered along the chain shown (N, C = ends). [ ]: non-standard residue; d: D form. R8 = C=CCCCCCC[C@@](C)(N)C(=O)O; S5 = C=CCCC[C@](C)(N)C(=O)O

Assays:
[1] = tested on: hematologic cancer cell lines with wild-type p53; test: Multiplexed cytotoxicity assay: cell proliferation/cytotoxicity (relative cell count), 72 h, cell lines with wild-type p53; type: cell-based; settings: liquid cancer cells expressing WT p53 protein
[2] = tested on: liquid cancer cell lines with mutant p53; test: Multiplexed cytotoxicity assay: cell proliferation/cytotoxicity (relative cell count), 72 h, cell lines with mutant p53; type: cell-based
Procedure: The objective of this study was to concurrently evaluate peptide 1-induced cytotoxicity, p21 up-regulation and caspase-3 activation in multiple liquid cancer cell cell lines characterized as having either wild-type or mutated p53 in order to determine whether the cytotoxicity is PD-mediated.
(§1) Cell lines from hematologic liquid cancer cells, characterized for p53 mutant/wild-type status, were seeded into 384-well plates and incubated in a humidified atmosphere of 5% CO2 at 37° C. Peptide 1 was serially diluted and assayed over 10 concentrations, up to 30 μM, in a final assay concentration of 0.1% DMSO. Treatment was added 24 hours post cell seeding, when a time zero untreated cell plate was also generated to determine the number of doublings in the 72 hour assay period. About one hundred cells per well were evaluated, with each test condition run in duplicate wells. After a 72 hour incubation period, cells were fixed and stained with fluorescently labeled antibody and nuclear dye. In the same wells, nuclei were assessed for toxicity (dye uptake) by automated fluorescence microscopy; apoptosis was assayed by elevations in anti-active caspase-3 antibody; and cell cycle arrest was assayed by elevations in anti-p21 monoclonal antibody EA10.
(§2) Cell proliferation was measured by relative cell count, which was expressed as percent of control. […]

activated caspase-3 = test: Multiplexed cytotoxicity assay: activated caspase-3 (apoptosis) induction in p53 wild-type hematopoietic cell lines; type: cell-based
Procedure: as §1
(§3) Cell proliferation was measured by relative cell count, which was expressed as percent of control.

p21 = test: Multiplexed cytotoxicity assay: p21 induction in p53 wild-type hematopoietic cell lines; type: cell-based
Procedure: as §1

BV-173 leukemia cells = test: Multiplexed cytotoxicity assay: relative cell count in BV-173 cells (wild type p53); type: cell-based; settings: wild type p53, 72 h
Procedure: as §1, §3
Those that did were most often characterized by significant inductions of both caspase-3 and p21. Results with BV-173 leukemia cells (Table 16) are representative of the typical responses with these cell lines.

[3] = tested on: HEL-92-1-7 leukemia cells; test: Multiplexed cytotoxicity assay: relative cell count in HEL-92-1-7 cells (mutant p53); type: cell-based; settings: mutant p53, 72 h
Procedure: as §1, §2
Results with HEL-92-1-7 leukemia cells (Table 17) are representative of the typical responses with these cell lines.

[4] = tested on: MV 4; 11 human leukemia xenograft; test: MV 4;11 human leukemia (AML) xenograft model, survival; type: in vivo; settings: mice, 25 mg/kg, six bi-weekly doses
Procedure: In another study, MV 4; 11 human leukemia xenograft model was used in mice to assess the ability of peptide 1 to inhibit tumor growth and improve overall survival in AML, a highly aggressive liquid tumor. In this study, 25 mg/kg dose of peptide 1 was administered in six bi-weekly doses and compared to the results of mice treated with only cyclophosphamide, the control group. Mice were monitored individually for an endpoint of morbidity due to progression of the leukemia. All ten mice that received the control exited the study between days 21 and 28, offering a sensitive assay for activity.

plasma protein = test: In vitro plasma protein binding; type: in vitro ADME, mouse, rat, dog, monkey, human; settings: for free peptide 1 fraction: human and monkey plasma
Procedure: The in vitro protein binding of peptide 1 was evaluated over a range of concentrations in mouse, rat and monkey plasma, as well as human plasma samples from normal subjects and hypoalbuminemic patients.

[5] = tested on: cryopreserved hepatocytes; test: In vitro metabolite profile / stability in cryopreserved hepatocytes; type: in vitro ADME, mouse, rat, monkey, and human
Description: (§4) Proteolysis is the major biotransformation pathway of peptide 1. […] The predominant metabolite was also observed in the plasma in both the rat and monkey 4-week GLP toxicology studies, with adequate exposures in these studies to provide characterization of its impact on the overall safety profile of peptide 1. […] Accumulation of the predominant metabolite was not observed with repeated twice-weekly dosing in rats or monkeys.

[6] = Single-dose rat study of metabolism and elimination; type: in vivo
Description: as §4

[7] = Pharmacokinetic/toxicokinetic studies after IV administration in mice, rats and monkeys; type: in vivo
Description: Pharmacokinetic studies characterize exposure kinetics following single IV administrations of peptide 1 in mice, rats and monkeys, including evaluations of two different dosing formulations in rats and monkeys. Using qualified liquid chromatography with tandem mass spectrometry (LC-MS-MS) methods for efficacy models and dose range-finding (DRF) studies, and validated methods for GLP safety studies, absorption was characterized in mice at the MED in efficacy models and in rats and monkeys at tolerated and non-tolerated doses in toxicology studies.

[8] = 4-week rat GLP toxicity study, twice-weekly IV dosing (toxicity and toxicokinetics); type: in vivo, rats
Description: (§5) The 4-week multiple-dose GLP studies in rats and monkeys utilized twice-weekly IV dosing of peptide 1. The studies provided dose- and exposure-related assessments during both dosing and recovery periods, and results were utilized to define the maximum tolerated doses (MTD) and estimate the severely toxic dose for 10% (STD10) of rats and the highest non-severely toxic dose (HNSTD) in monkeys. All gross and microscopic signs of intolerance (e.g., reduced organ weights, sporadic findings of multi-tissue hemorrhage and hepatic necrosis) and changes in serum chemistry parameters were considered as secondary to red blood cell (RBC), platelet and/or white blood cell (WBC) depletions or anorexia and dehydration in both species.

[9] = 4-week monkey GLP toxicity study, twice-weekly IV dosing (toxicity and toxicokinetics); type: in vivo, monkeys
Description: as §5

[10] = tested on: bacterial mutagenicity (Ames); test: Bacterial mutagenicity (Ames)
Description: (§6) Peptide 1 was negative in genetic toxicology studies, including bacterial mutagenicity (Ames), chromosomal aberrations (human peripheral blood lymphocyte) and in vivo micronucleus (rat bone marrow) assays.

rat bone marrow = test: In vivo micronucleus assay
Description: as §6

[11] = Preclinical GLP safety studies in rodents and monkeys (overall profile); type: in vivo
Description: Genotoxicity, gastrointestinal toxicity, cardiotoxicity, and immunogenicity were not observed.

[12] = tested on: cytochrome P450 (CYP) isoforms; test: In vitro cytochrome P450 inhibition; type: in vitro ADME
Description: (§7) Inhibition or induction of cytochrome P450 (CYP) enzymes by peptide 1 appears to be negligible at clinically-relevant concentrations, although interactions are possible at high exposures of peptide 1 with drugs that are predominantly cleared by hepatobiliary transporters.
(§8) Based on these findings, the potential of clinically relevant drug-drug interactions for concomitant medications that are cleared through CYP-mediated mechanisms can be low.

[13] = tested on: cytochrome P450 (CYP) enzymes; test: In vitro cytochrome P450 induction; type: in vitro ADME
Description: as §7, §8

[14] = tested on: human peripheral blood lymphocyte
[15] = in vivo, intravenous, 4-week rat GLP toxicity study, range over doses
[16] = in vivo, intravenous, 4-week monkey GLP toxicity study, range over doses

Structure (SMILES): CC(=O)N[C@@H](CC(C)C)C(=O)N[C@H](C(=O)N[C@@H](Cc1ccccc1)C(=O)N[C@]1(C)CCCCCC/C=C/CCC[C@@](C)(C(=O)N[C@@H](C)C(=O)N[C@@H](C)C(=O)N[C@@H](C)C(=O)N[C@@H](C)C(=O)N[C@@H](C)C(=O)N[C@H](C)C(N)=O)NC(=O)[C@H](CC(C)C)NC(=O)[C@H](CCC(N)=O)NC(=O)[C@H](C)NC(=O)[C@H](Cc2c[nH]c3ccccc23)NC(=O)[C@H](Cc2ccc(O)cc2)NC(=O)[C@H](CCC(=O)O)NC1=O)[C@@H](C)O [peptide 1] (Ac-LTF[R8]EYWAQL[S5]AAAAA[dA]-NH2; staple (E) 4-11)
- activity in in vitro liquid cancer cell growth assays [1]: demonstrates activity
- activity in in vitro liquid cancer cell growth assays ([2]; cells with mutations of p53): not in cells with mutations of p53
- character of cytotoxicity ([2]; liquid cancer cell lines containing mutated p53): cell cycle arrest without elevated apoptosis
- apoptotic response (activated caspase-3) (activated caspase-3): robust apoptotic responses
- induction of p21 (p21): significant induction of p21
- Relative Cell Count (%) Mean (BV-173 leukemia cells; 3.00E+00 μM): 15.0%
- Relative Cell Count (%) Mean (BV-173 leukemia cells; 3.00E+01 μM): 2.2%
- Relative Cell Count (%) Mean (BV-173 leukemia cells; 3.01E−01 μM): 31.8%
- Relative Cell Count (%) Mean (BV-173 leukemia cells; 3.01E−02 μM): 84.8%
- Relative Cell Count (%) Mean (BV-173 leukemia cells; 3.02E−03 μM): 99.9%
- Relative Cell Count (%) Mean (BV-173 leukemia cells; 9.49E+00 μM): 4.3%
- Relative Cell Count (%) Mean (BV-173 leukemia cells; 9.51E−01 μM): 14.3%
- Relative Cell Count (%) Mean (BV-173 leukemia cells; 9.52E−02 μM): 64.4%
- Relative Cell Count (%) Mean (BV-173 leukemia cells; 9.53E−03 μM): 94.9%
- Relative Cell Count (%) Mean (BV-173 leukemia cells; 9.55E−04 μM): 100.8%
- Relative Cell Count (%) Mean ([3]; 3.00E+00 μM): 79.2%
- Relative Cell Count (%) Mean ([3]; 3.00E+01 μM): 67.9%
- Relative Cell Count (%) Mean ([3]; 3.01E−01 μM): 77.8%
- Relative Cell Count (%) Mean ([3]; 3.01E−02 μM): 89.8%
- Relative Cell Count (%) Mean ([3]; 3.02E−03 μM): 96.8%
- Relative Cell Count (%) Mean ([3]; 9.49E+00 μM): 76.9%
- Relative Cell Count (%) Mean ([3]; 9.51E−01 μM): 81.9%
- Relative Cell Count (%) Mean ([3]; 9.52E−02 μM): 89.7%
- Relative Cell Count (%) Mean ([3]; 9.53E−03 μM): 98.2%
- Relative Cell Count (%) Mean ([3]; 9.55E−04 μM): 98.5%
- median overall survival [4]: 40 days
- free peptide 1 fraction (plasma protein; concentrations >200 μM): 12-14%
- free peptide 1 fraction (plasma protein; concentrations up to 150 μM): 3-4%
- fraction unbound (plasma protein; mouse and rat plasma up 250 µM): < 0.02
- fraction unbound (plasma protein; mouse, rat, dog, monkey, human, plasma of mice, rats, dogs, monkeys, and humans): 0.02 to 0.08
- major biotransformation pathway ([5]; in vitro, across species): Proteolysis
- metabolite profile across species ([5]; mouse, rat, monkey, and human cryopreserved hepatocytes): same metabolite profile
- predominant clearance pathway [6]: hepatobiliary metabolism and elimination
- dose proportionality of exposure ([7]; rats and monkeys): increased proportionally with dose
- sex-based differences in PK ([7]; rats and monkeys): No significant sex-based differences
- accumulation following multiple doses ([7]; rats and monkeys, twice-weekly schedule): no accumulation
- accumulation of the predominant metabolite ([7]; repeated twice-weekly dosing in rats or monkeys): not observed
- Cmax [8, 15]: 49.9 to 186 µg/mL
- clearance [8, 15]: 0.32 to 0.472 mL/min/kg
- AUC(0-inf) ([8]; in vivo, intravenous, 4-week rat GLP toxicity study, range over doses, read-out: AUC0-∞): 90.5 to 562 µg·h/mL
- AUC(0-inf) ([8]; in vivo, intravenous, rat, 10 mg/kg, read-out: AUC0-∞ at rat STD10): 562 µg·h/mL
- predominant metabolite exposure relative to peptide 1 AUC ([8]; rat, 4-week GLP toxicology study): 6%
- dose proportionality of Cmax and AUC ([8]; rats): linear, dose-proportional increases
- STD10 (severely toxic dose for 10%) ([8]; rats, twice-weekly IV, 4 weeks): 10 mg/kg
- exposure at the high-dose group ([9]; 20 mg/kg, 4-week monkey GLP toxicity study): apparent plateau in exposure
- platelet response ([9]; 4-week monkey GLP toxicity study, different dosings): dose-dependent decreases in platelets with recovery
- Cmax [9, 16]: 133 to 562 µg/mL
- clearance [9, 16]: 0.108 to 0.23 mL/min/kg
- half-life [9, 16]: 3.7 to 6 h
- AUC(0-inf) ([9]; in vivo, intravenous, 4-week monkey GLP toxicity study, range over doses, read-out: AUC0-∞): 813 to 1600 µg·h/mL
- AUC(0-inf) ([9]; in vivo, intravenous, monkey, 5 mg/kg, read-out: AUC0-∞ at HNSTD in monkeys): 813 µg·h/mL
- predominant metabolite plasma exposure relative to AUC ([9]; monkey, 4-week GLP toxicology study): 10%
- significant thrombocytopenia ([9]; monkeys, lowest dose level 5 mg/kg): complete lack of significant thrombocytopenia
- significant thrombocytopenia ([9]; monkeys, mid- and high-dose levels): only one animal
- HNSTD (highest non-severely toxic dose) ([9]; monkeys, twice-weekly IV, 4 weeks): 5 mg/kg
- dose proportionality of exposure ([9]; non-human primates): increased proportionally with dose
- bacterial mutagenicity (Ames) [10]: negative
- in vivo micronucleus (rat bone marrow): negative
- Genotoxicity [11]: not observed
- Histopathology [11]: bone marrow hypocellularity consistent with mild to moderate myelosuppression
- cardiotoxicity [11]: not observed
- gastrointestinal toxicity [11]: not observed
- immunogenicity [11]: not observed
- inhibition of cytochrome P450 (CYP) isoforms [12]: negligible; also recorded: not an inhibitor
- induction of cytochrome P450 (CYP) enzymes [13]: negligible; also recorded: did not indicate any significant treatment-related effects
- chromosomal aberrations [14]: negative
